According to patent US9977009B2, “Planar patch clamp device and planar patch clamp system” (Japan Science and Technology Agency, priority 2013, dated 2018):

Assays:
[1] = test system: nerve cells obtained by dissecting the cerebral cortex of a rat (neuron network); assay: Channel current measurement of a neuron network with the composite multi-channel type planar patch clamp device (whole-cell mode); assay type: cell-based; conditions: applied membrane potential −20 mV; for increase of large area pulse channel current in the state of glutamic acid toxicity: CNQX (200 μM) and D-AP5 (200 μM) added together after 20 μM glutamic acid, about 60 minutes, FIG. 12(c)
Text: The composite multi-channel type planar patch clamp device (1b) of the present invention was used to conduct experiments showing that high throughput screening of drugs acting on a neural network is possible. At the cell fixing locations (24) of the Si substrate surface (2S) having approximately 2 micron size through holes (3) of the composite multi-channel type planar patch clamp device (1b) shown in FIG. 5, nerve cells (5) obtained by dissecting the cerebral cortex of a rat on day 17 of birth were seeded. The commercially available nerve cell medium (Sumitomo Bakelite) was added and the result cultured in a dish for 11 days to form a neuron network which was then observed by an optical microscope (FIG. 10). Next, the Si substrate (2) on which the nerve cells (5) were placed was set on the composite multi-channel type planar patch clamp device (1b) and the reservoir sections (22) of the first reservoir (6) were filled with the bath solution (145 mM NaCl+3 mM KCl+10 mM HEPES+2 mM CaCl2+8 mM Glucose+1 mM MgCl2.6H2O, pH7.3). […] A flat baseline was recorded without regard to the applied membrane potential. […] After measurement for about 60 minutes, to one reservoir section (22) of the first reservoir, a bath solution comprising the AMPA receptor antagonist 6-cyano-7-nitroquinoxaline-2,3-dione (CNQX)(200 μM) and NMDA receptor antagonist D-(−)-2-amino-5-phosphonopentanoic acid (D-AP5) (200 μM) dissolved in it was introduced and the channel current was again measured (FIG. 11C). […] To show these states clearer, the channel current of the applied membrane potential −20 mV was focused on and the area of each pulse-like wavelength observed was calculated. […] By filling the other reservoir sections (22) with other candidate drugs, making the valves (10) of the branch supply path (8b) and branch discharge path (9b) corresponding to the measured section the opened state, making the other valves (10) the closed state, and similarly measuring the channel current, it is possible to measure the effect of a candidate drug on the neuron network. […]

[2] = test system: Cerebral cortex cells of a rat (neuron network); assay: Ca^2+ imaging of a neuron network; assay type: cell-based; conditions: buffer solution (500 μl) containing 10 μM glutamic acid added; FIG. 13(b)
Description: Inside the 35 mm dish (a), the substrate of FIG. 6 (finished being coated by PLL) was placed. Cerebral cortex cells of a rat on day 17 of birth isolated by the enzyme trypsin were suspended by a commercially available nerve cell medium (Sumitomo Bakelite) to give 2.5×10^5 cells/ml. This cell suspension: 2 ml (=5.0×10^5 cells) was added to the dish (a). In the presence of 5% CO2, this was cultured at 37° C. for 17 days. After formation of the neuron network, this substrate was transferred to another dish (b). To this dish (b), a nerve cell medium (2 ml) was added. To this medium, BAPTA-1 (1 μl) and Cremophor (10 μl) were added and cultured at 37° C. for 1 hour. The culture supernatant was discarded and a buffer solution (145 mM NaCl+10 mM HEPES+8 mM Glucose+3 mM KCl+2 mM CaCl2+1 mM MgCl2, pH7.3): 2 ml was added. This was stored at room temperature away from the light until right before use and the Ca^2+ fluorescence intensity was measured (Ca^2+ imaging measurement) (FIG. 13(a)). After this, a buffer solution (500 μl) containing 10 μM concentration glutamic acid was added. After 2.5 minutes, time lapse measurement of Ca^2+ imaging was started (FIG. 13(b)). After 9.5 minutes, an antagonist mixture: 10 μl containing 2.5 mM D-AP5 and 2.5 mM CNQX was added. Furthermore, after 10.5 minutes, time lapse measurement of Ca^2+ imaging was performed (FIG. 13(c)).

## N#Cc1cc2c(cc1[N+](=O)[O-])=NC(=O)C(=O)N=2 [CNQX, 6-cyano-7-nitroquinoxaline-2,3-dione]
[1]
  increase of large area pulse channel current in the state of glutamic acid toxicity: substantially eliminated

## N[C@H](CCCP(=O)(O)O)C(=O)O [D-AP5, D-(−)-2-amino-5-phosphonopentanoic acid]
[1]
  increase of large area pulse channel current in the state of glutamic acid toxicity: substantially eliminated

## N[C@@H](CCC(=O)O)C(=O)O [glutamic acid]
[1]; glutamic acid added to first reservoir, final concentration 20 μM, FIG. 12(b)
  large area pulse channel current: increases
[2]
  concentration of Ca^2+ in the cells: rise in a fluctuating manner
